Patent publication US8236339B2, “Therapeutic delivery of carbon monoxide” (priority 2001, dated 2012)
“Also recorded” adds a separate entry of the source.

Key:
[1] = Systemic blood pressure and heart rate in anaesthetised Sprague-Dawley rats; format: in vivo, rat; conditions: for HR, 60 μmol.kg^−1 / MAP, 60 μmol.kg^−1: directly after i.v. bolus 60 μmol/kg (cumulative 100); for HR, Baseline / MAP, Baseline: just before infusion of the compound
Procedure: Adult male Sprague-Dawley rats (280-350 g, 8-10 weeks of age) were bred in-house at the Northwick Park Institute for Medical Research (Harrow, UK). Rats were housed in groups of 3 in cages under a 12 h cycle of day/night, with free access to drinking water and fed ad libitum. All surgical procedures were performed in compliance with U.K. Home Office regulations. Rats were anaesthetised in a polycarbonate chamber in a stream of Enflurane™ (Abbot, UK) in oxygen before being transferred onto a mask and continuously supplied with Enflurane™ throughout the experiment with an anaesthetic machine (Aimed, UK). During the surgical procedure the rats were kept at a constant body temperature of 37° C. using a heat pad positioned underneath the operating surface. Specially designed femoral artery and venous catheters were then surgically implanted as previously described (see ref. 40). The catheter in the artery was connected via a luer connector and a three-way tap to a pressure transducer (Gould model P23ID, Statham, USA) for continuous mean arterial pressure (MAP) and heart rate (HR) monitoring. A purpose-built tail-cuff pressure transducer (ADInstruments, UK) was also placed on the tail of the rat and pressure transducer and tail cuff were connected to a polygraph recorder (Grass, Model 7D, Astra-med, UK) pre-calibrated in millimeters of mercury (mmHg). An analogue output provided data for a computer-based data acquisition system (PowerLab™, ADInstruments, UK). The computer-based system was set to record mean arterial pressure (MAP), in mmHg, and heart rate (HR), in beats/min (bpm), for the duration of the experiment. […] Once a stable pressure had been reached, each catheter was flushed with saline containing heparin and no further changes were made to the anaesthetic supply. Ru(CO)3Cl(glycinato) (CO-RM-3) was prepared in stock solutions of 20, 60 and 120 μmoles·ml^−1 by solubilizing the compound in saline. […] CO-RM-3 (or the negative control) was then infused into the animal via the femoral vein catheter as a bolus so that the final concentration infused was 10, 30 or 60 μmoles·kg^−1 body weight. Throughout the experiment MAP and HR were continuously recorded and monitored. Although concentrations of 10, 30 and 60 μmoles·kg^−1 were infused into each animal, the resulting concentrations in the animal were cumulative. Therefore, the final concentration attained in the animal was 10, 40 and 100 μmoles·kg^−1, respectively.
The results are presented in Table 2, where the data shown represents samples taken at baseline (just before infusion of the compound) and directly after administration of 10, 30 and 60 μmoles·kg^−1 of the compound. All data are mean i SEM. n=3 independent experiments. *P<0.05 vs. baseline.

[2] = L-NAME-induced increase in mean arterial pressure in anaesthetised Lewis rats; format: in vivo, rat; conditions: L-NAME 30 μmol/kg i.v.; [Ru(CO)3Cl2]2 60 μmol/kg i.v. 1 h before; hemin 75 μmol/kg i.p. 24 h before; SnPPIX 40 μmol/kg i.p.
Procedure: Lewis rats (280-350 g) were anaesthetised by intramuscular injection of 1 ml/kg Hypnorm (fentanyl 0.315 mg/ml and fluanisone 10 mg/ml) followed 5 min later by an intraperitoneal injection of 5 mg/kg diazepam. Specially designed femoral artery and venous catheters were then surgically implanted as previously described (40). The arterial cannula was connected to a Grass pressure transducer and blood pressure monitored continuously using a polygraph recorder. Experiments were conducted on anaesthetized animals and recordings were made within 30 min of the surgical procedure.
Control rats (vehicle-treated) and animals that were pre-treated with hemin (75 μmol/kg, i.p) 24 h prior to blood pressure monitoring were then administered with an intravenous injection of 30 μmol/Kg L-NAME to elicit an increase in mean arterial pressure. The extent of blood pressure increase by L-NAME was also monitored over time in hemin-treated animals that received SnPPIX (40 μmol/kg, i.p.) and in control rats previously injected with [Ru(CO)3Cl2]2 (60 μmol/kg, i.v.). In these two groups, SnPPIX or [Ru(CO)3Cl2]2 were administered to animals 1 h prior to L-NAME injection.

isolated rat hearts = conditions: for effect on L-NAME-mediated vasoconstriction / rise in CPP: L-NAME 25 μM perfusion
Procedure: Langendorff heart preparations were performed using male Lewis rats (300-350 g) as previously described by our group (35). […] (pH 7.4). Coronary perfusion pressure (CPP), a parameter indicative of coronary vessel contractility, was continuously measured by a pressure transducer connected to the aortic cannula and data analyzed with an Acknowledge software (BIOPAC System Inc.).
Hearts removed either from control rats (vehicle-treated) or from animals that were pre-treated with the heme oxygenase-1 inducer hemin (75 μmol/kg, i.p.) the day before, were initially equilibrated for 20 min on the Langendorff apparatus and then perfused with L-NAME (25 μM final concentration) to elicit vasoconstriction. The extent of CPP increase by L-NAME was also monitored over time in hemin-treated animals that received a heme oxygenase inhibitor (SnPPIX, 40 μmol/kg) 1 h prior to heart excision and in control hearts that were perfused with buffer supplemented with [Mn2(CO)10] (13 μM final concentration). Since [Mn2(CO)10] releases CO only by photodissociation, Krebs buffer containing [Mn2(CO)10] was exposed to a cold light source immediately before entering the aortic cannula.

[3] = system: Rat vascular smooth muscle cells; assay: Cell viability of vascular smooth muscle cells (colorimetric assay); format: cell-based
Procedure: Rat vascular smooth muscle cells were obtained from the Coriell Cell Repository (Camden, N.J., USA) and grown in Dulbecco's […] (MEM) supplemented with 20% foetal calf serum, 2×MEM vitamins, 2×MEM non-essential and essential amino acids, penicillin (100 units/ml) and streptomycin (0.1 mg/ml). Confluent cells were treated with different concentrations of metal carbonyl (introduced as DMSO solution—see section B) for various times and cell viability was assessed using a colorimetric assay kit from Promega (Madison, Wis., USA) as previously described (47) after 3 or 24 h incubation, or after 3 h exposure to the agents followed by 21 h incubation in complete media. Results are expressed as the mean±s.e.m. of 6 independent experiments and differences were considered statistically significant at P<0.05 (*).

[4] = system: aortic rings pre-contracted with phenylephrine; assay: Relaxation of isolated aortic rings pre-contracted with phenylephrine; design: species or system rat; conditions: for vasodilatory effect on pre-contracted aortic rings (in words): consecutive additions; for % Relaxation, 1st addition / % Relaxation, 2nd addition / % Relaxation, 3rd addition: cumulative doses, phenylephrine 3 μM
Procedure: Transverse ring sections of thoracic aorta were isolated from male Lewis rats and suspended under a 2 g tension in an organ bath containing oxygenated Krebs-Henseleit buffer at 37° C. as previously described (23). The relaxation response to cumulative doses of metal carbonyl (dissolved in DMSO—see section 2) was assessed in aortic rings pre-contracted with phenylephrine (3 μM). Control rings were similarly treated by adding equal doses of DMSO (vehicle) to the organ bath.

[5] = system: deoxymyoglobin (deoxy-Mb); assay: Myoglobin assay: conversion of deoxy-Mb to MbCO on direct addition of metal carbonyl; format: biochemical, horse; conditions: for MbCO formation / CO release when added directly to deoxy-Mb solution: direct addition to myoglobin solution (66 μM), no light
Procedure: The release of CO from metal carbonyl complexes was assessed spectrophotometrically by measuring the conversion of deoxymyoglobin (deoxy-Mb) to carbonmonoxy myoglobin (MbCO). MbCO has a distinctive absorption spectrum between 500 and 600 nm, and changes at 540 nm were used to quantify the amount of CO liberated. Myoglobin solutions (66 μM final concentration) were prepared freshly by dissolving the protein in 0.04 M phosphate buffer (pH 6.8). Sodium dithionite (0.1%) was added to convert myoglobin to deoxy-Mb prior to each reading. All the spectra were measured using a Helios a spectrophotometer.
Various metal carbonyl complexes were tested for their ability to elicit MbCO formation when added directly to a deoxy-Mb solution. To different extents, [Ru(CO)3Cl2]2, [Ru(CO)2(DMSO)2Cl2], [Ru(CO)3Cl2(cytosine)] and […] all released CO when added directly to the Mb solution.
The metal carbonyl complex was solubilized in DMSO (9.7 mM stock solution), aliquots of 2 to 32 μl were added directly to 1 ml of deoxy-Mb solutions (66 μM) and absorption spectrum determined immediately after mixing the samples by inversion.

[6] = directly after i.v. bolus 10 μmol/kg
[7] = directly after i.v. bolus 30 μmol/kg (cumulative 40)

Row | Compound | effect on L-NAME-induced increase in blood pressure [2] | vasodilatory effect on pre-contracted aortic rings (in words) [4] | % Relaxation, 1st addition [4] | % Relaxation, 2nd addition [4] | % Relaxation, 3rd addition [4] | MbCO formation / CO release when added directly to deoxy-Mb solution [5] | further results
1 | CS(C)=O.CS(C)=O.CS(C)=O.CS(C)=O.[Cl][Ru][Cl] [Cis-RuCl2(DMSO)4, reference compound] |  |  |  |  |  |  | effects on HR or MAP (in words) ([1]; 10, 30 or 60 μmoles·kg^−1): no significant effects on either HR or MAP; marginal increase in MAP during the administration of each bolus ([1]; believed to be a volume effect, also seen with saline): 5.5±1 mmHg; HR, 10 μmol.kg^−1 [1, 6]: 255 ± 6 bpm; MAP, 10 μmol.kg^−1 [1, 6]: 82 ± 4 mmHg; HR, 30 μmol.kg^−1 [1, 7]: 256 ± 8 bpm; MAP, 30 μmol.kg^−1 [1, 7]: 79 ± 5 mmHg; HR, 60 μmol.kg^−1 [1]: 256±9 bpm; MAP, 60 μmol.kg^−1 [1]: 81±4 mmHg; HR, 60 μmol.kg^−1 ([1]; listed as Cts-RuCl2(DMSO)4): 256 ± 9 bpm; MAP, 60 μmol.kg^−1 ([1]; listed as Cts-RuCl2(DMSO)4): 81± 4 mmHg; HR, Baseline [1]: 257±7 bpm; MAP, Baseline [1]: 80±2 mmHg; HR, Baseline ([1]; listed as Cts-RuCl2(DMSO)4): 257 ± 7 bpm; MAP, Baseline ([1]; listed as Cts-RuCl2(DMSO)4): 80 ± 2 mmHg
2 | COC(=O)[C@@H](N)CCCNC(=N)N[N+](=O)[O-] [L-NAME, N^G-nitro-L-arginine methyl ester] | rapid and significant increase in blood pressure |  |  |  |  |  | maximum increase in CPP (isolated rat hearts; L-NAME 25 μM, after 30 min): 3 fold
3 | O.[Cl][Ru]([Cl])[Cl] [RuCl3, ruthenium(III) chloride hydrate, reference compound] |  |  |  |  |  |  | decrease in cell viability over time ([3]; equivalent molar concentrations of ruthenium): did not cause any appreciable decrease in cell viability
4 | C=Cc1c2[n-]c(c1C)/C=c1\[n-]/c(c(C)c1C=C)=C\c1[n-]c(c(CCC(=O)O)c1C)C=c1[n-]/c(c(C)c1CCC(=O)O)=C\2.[Sn+4] [SnPPIX, tin protoporphyrin IX] | totally reversed |  |  |  |  |  | effect on L-NAME-mediated vasoconstriction / rise in CPP (isolated rat hearts): the effect of hemin was completely reversed
5 | [C-]#[O+].[C-]#[O+].[C-]#[O+].[C-]#[O+].[C-]#[O+].[C-]#[O+].[Cl][Ru][Cl].[Cl][Ru][Cl] [[Ru(CO)3Cl2]2, tricarbonyldichlororuthenium (II) dimer] | markedly suppressed | rapid and significant vasodilatation | 49.9 ± 2.7 % | 66.2 ± 3.2 % | 74.1 ± 4.1 % | released CO | cell viability ([3]; 3 h exposure followed by additional 21 h incubation in complete medium): well preserved; cytotoxicity ([3]; 3 h treatment, 0-420 μM final concentration): did not promote any detectable cytotoxicity; loss in cell viability ([3]; prolonged exposure (24 h), very high concentrations (>400 μM)): > 50%; extent of relaxation after the first addition, more than control ([4]; 222 μM final concentration): 45%; phenylephrine-induced contraction after extensive washing ([4]; after extensive washing, restored in control but not in treated vessels): produces long-lasting effects; moles of CO liberated for each mole of compound ([5]; 9.7 mM DMSO stock, 2 to 32 μl added to 1 ml deoxy-Mb 66 μM, linear regression of MbCO saturation curve): approximately 0.7 moles
6 | [Fe(SPh)2(2,2′-bipyridine)(CO)2] |  | very effective in promoting vasorelaxation | 50.8% | 60.5% | 75% | did not release any detectable CO to myoglobin; also recorded: No MbCO was detected | 
7 | [Fe(SPh)2(H2NCH2CH2NH2)(CO)2] |  | less evident | 11% | 24.6% | 29.3% | No MbCO was detected | 
8 | [Ru(CO)2(DMSO)2Cl2] |  | produced vasodilatation although the effect was less pronounced compared to [Ru(CO)3Cl2]2 | 1.6% | 16% | 35% | released CO | 
9 | [Ru(CO)3Cl2(cytosine)] |  | did not demonstrate any effect | 3.2% | 10.3% | 12.6% | released CO | 
10 | manganese chloride |  |  |  |  |  |  | effect on L-NAME-mediated vasoconstriction / rise in CPP (isolated rat hearts): had no effect on myocardial CPP
